Test results taken from patent US8314113B2, “Substituted dihydroquinazolines II” (Aicuris GmbH & Co. KG, priority 2003, dated 2012).
Counter-ions that a name gives are not always drawn. Like-named read-outs stand apart in the source and are kept apart here.

How the values were obtained:
[1] = Cytotoxicity on NHDF cells in the anti-HCMV cytopathogenicity test; type: cell-based; settings: NHDF cells (human prepuce fibroblasts), visual assessment, concentration at which no visible cytostatic effects are evident
Description: (§1) Anti-HCMV (Anti-Human Cytomegalovirus) Cytopathogenicity Tests The test compounds are employed as 50 millimolar (mM) solutions in dimethyl sulphoxide (DMSO). Ganciclovir, Foscarnet and Cidofovir are used as reference compounds. After addition of in each case 2 μl of the 50, 5, 0.5 and 0.05 mM DMSO stock solutions to 98 μl portions of cell culture medium in row […] for duplicate determinations, 1:2 dilutions are carried out with 50 μl portions of medium up to row 11 of the 96-well plate. The wells in rows 1 and 12 each contain 50 μl of medium. Then 150 μl portions of a suspension of 1×10^4 cells (human prepuce fibroblasts [NHDF]) are pipetted into each of the wells (row 1=cell control) and, in rows 2-12, a mixture of HCMV-infected and uninfected NHDF cells (M.O.I.=0.001-0.002), i.e. 1-2 infected cells-per 1000 uninfected cells. Row 12 (without substance) serves as virus control. The final test concentrations are 250-0.0005 μM. The plates are incubated at 37° C./5% CO2 for 6 days, i.e. until all the cells are infected in the virus controls (100% cytopathogenic effect [CPE]). The wells are then fixed and stained by adding a mixture of formalin and Giemsa's dye (30 minutes), washed with double-distilled water and dried in a drying cabinet at 50° C. The plates are then assessed visually using an overhead microscope (Plaque Multiplier from Technomara). The following data can be acquired from the test plates: CC50 (NHDF)=substance concentration in μM at which no visible cytostatic effects on the cells are evident by comparison with the untreated cell control;

HCMV = assay: Anti-HCMV cytopathogenicity test (CPE inhibition); type: cell-based, human cytomegalovirus; settings: for EC50: read-out: HCMV EC50; for SI HCMV (selectivity index = CC50 (NHDF)/EC50 (HCMV)): ratio CC50 (NHDF)/EC50 (HCMV)
Description: as §1, with “plates: EC50 (HCMV)=substance” for “plates: CC50 (NHDF)=substance”, “μM” for “μM at”, “which inhibits” for “which no visible cytostatic effects on”, “the CPE (cytopathic effect)” for “the cells are evident”, “by 50% compared” for “by comparison”, “untreated virus” for “untreated cell”

[2] = Human betaherpesvirus 5, NHDF, 144 h
[3] = Human betaherpesvirus 5, 144 h, HCMV-infected NHDF cells, M.O.I. 0.001-0.002, 6 days, 50% inhibition of CPE

| Structure (SMILES) | CC50 at 6 days [1] [µM] | EC50 (HCMV; [2]) [µM] | SI HCMV (selectivity index = CC50 (NHDF)/EC50 (HCMV)) (HCMV) | EC50 (HCMV; [3]) [µM] |
| --- | --- | --- | --- | --- |
| COc1ccc(C(F)(F)F)cc1N1C(C2CCN(c3ccc(F)c(C)c3)CC2)=Nc2c(F)cccc2C1CC(=O)O (racemic) [Example 1, {8-Fluoro-2-[1-(4-fluoro-3-methylphenyl)piperidin-4-yl]-3-[2-methoxy-5-(trifluoromethyl)phenyl]-3,4-dihydroquinazolin-4-yl}acetic acid hydrochloride] | 24 | 0.03 | 800 | – |
| COc1ccc(C(F)(F)F)cc1N1C(C2CCN(c3cccc(C)c3)CC2)=Nc2c(F)cccc2C1CC(=O)O (stereo not drawn) [Example 3, {8-Fluoro-3-[2-methoxy-5-(trifluoromethyl)phenyl]-2-[1-(3-methylphenyl)piperidin-4-yl]-3,4dihydroquinazolin-4-yl}acetic acid] | 31 | – | 310 | 0.1 |
| COc1ccc(C(F)(F)F)cc1N1C(C2CCN(c3ccc(F)cc3)CC2)=Nc2c(F)cccc2C1CC(=O)O (stereo not drawn) [Example 4, {8-Fluoro-2-[1-(4-fluorophenyl)piperidin-4-yl]-3-[2-methoxy-5-(trifluoromethyl)-phenyl]-3,4-dihydroquinazolin-4-yl}acetic acid] | 36 | – | 237 | 0.15 |
| COc1ccc(C(F)(F)F)cc1N1C(C2CCN(c3ccc(F)c(C)c3)CC2)=Nc2c(F)cccc2C1CC(=O)O (stereo not drawn) [Example 2, {8-Fluoro-2-[1-(4-fluoro-3-methylphenyl)piperidin-4-yl]-3-[2-methoxy-5-(trifluoromethyl)phenyl]-3,4-dihydroquinazolin-4-yl}acetic acid hydrochloride] | 31 | 0.04 | 775 | – |
